# Laboratory results: ChEMBL document CHEMBL1201862, “PubChem BioAssay data set” (2004)
# The source made the active and inactive calls.
# What was measured:
# Escherichia coli = assay: microbe, parasite or virus in culture
# [1] = target: T1, Short transient receptor potential channel 4 (Mus musculus, UniProt Q9QUQ5); assay: calcium entry via TRPC4 opening agents – cell-based, HEK293 TRPC4/mu-opioid, Fluo-4 calcium, dose response (AID 434937); type: functional
# T1 sequence (Q9QUQ5 whole entry): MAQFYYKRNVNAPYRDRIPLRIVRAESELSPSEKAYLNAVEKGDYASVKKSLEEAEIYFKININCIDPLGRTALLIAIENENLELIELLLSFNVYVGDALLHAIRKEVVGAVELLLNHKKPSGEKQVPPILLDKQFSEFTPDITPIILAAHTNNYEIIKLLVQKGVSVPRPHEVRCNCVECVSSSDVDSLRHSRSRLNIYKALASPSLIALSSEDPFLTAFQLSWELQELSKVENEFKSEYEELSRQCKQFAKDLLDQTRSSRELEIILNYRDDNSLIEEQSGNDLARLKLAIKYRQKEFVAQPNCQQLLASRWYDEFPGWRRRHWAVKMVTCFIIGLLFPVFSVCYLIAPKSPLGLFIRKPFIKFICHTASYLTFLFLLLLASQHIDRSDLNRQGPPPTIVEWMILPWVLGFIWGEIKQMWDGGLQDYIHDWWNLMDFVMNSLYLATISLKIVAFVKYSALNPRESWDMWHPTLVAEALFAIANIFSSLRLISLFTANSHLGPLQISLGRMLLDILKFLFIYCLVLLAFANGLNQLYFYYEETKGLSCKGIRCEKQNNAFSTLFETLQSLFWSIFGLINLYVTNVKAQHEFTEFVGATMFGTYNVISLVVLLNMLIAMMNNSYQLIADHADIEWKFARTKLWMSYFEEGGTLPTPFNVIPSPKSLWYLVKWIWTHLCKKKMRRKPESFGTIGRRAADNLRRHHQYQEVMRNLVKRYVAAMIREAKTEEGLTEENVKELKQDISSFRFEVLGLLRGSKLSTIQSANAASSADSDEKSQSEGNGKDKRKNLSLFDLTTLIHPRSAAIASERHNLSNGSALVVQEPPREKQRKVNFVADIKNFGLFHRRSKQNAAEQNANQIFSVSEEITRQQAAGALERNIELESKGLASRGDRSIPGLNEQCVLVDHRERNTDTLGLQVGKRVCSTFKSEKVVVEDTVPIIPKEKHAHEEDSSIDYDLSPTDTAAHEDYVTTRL
# [2] = target: Delta-type opioid receptor (Homo sapiens, UniProt P41143); assay: Counterscreen for agonists of heterodimerization of the mu 1 (OPRM1) and delta 1 (OPRD1) opioid receptors: Luminescence-based cell-based high throughput dose response assay to identify agonists of OPRD1 homodimerization. [Related pubchem assays (depositor defined):AID504326, AID504355, AID504692, AID504904, AID504905]; type: functional
# Mu-type opioid receptor = Mu-type opioid receptor (Homo sapiens, UniProt P35372); assay: Counterscreen for agonists of heterodimerization of the mu 1 (OPRM1) and delta 1 (OPRD1) opioid receptors: Luminescence-based cell-based high throughput dose response assay to identify agonists of OPRM1 homodimerization.; type: functional;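 further: U2OS cells expressing OPRM1 and beta-arrestin as split beta-galactosidase partners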
# [3] = target: 5-hydroxytryptamine receptor 5A (Homo sapiens, UniProt P47898); assay: Counterscreen for agonists of OPRM1-OPRD1 heterodimerization: luminescence-based cell-based high throughput dose response assay to identify agonists of 5-hydroxytryptamine (serotonin) 5A receptor (HTR5A). [Related pubchem assays (depositor defined):AID504326, AID504355, AID504692, AID504904, AID504905]; type: functional
# [4] = NIH-3T3 fibroblast cytotoxicity, dose response, cytotoxicity control, cell-based, fluorescence, Alamar Blue, secondary assay (AID 2327); type: functional;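 further: NIH-3T3 mouse fibroblasts cultured with fluconazole at 8 µg/mL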
# [5] = fluconazole-exposed Candida albicans growth modulators – fluorescence, retest, confirmation (AID 2467); type: functional, cell-based
# [6] = microbe, parasite or virus in culture; type: functional; conditions: Mycobacterium tuberculosis
# [7] = viability of uninfected HEp-2 cells – cell-based, HTS, cytotoxicity control for RSV inhibitor project, dose response (AID 2410); type: functional; conditions: human respiratory syncytial virus
# [8] = target: T2, Heat shock factor protein 1 (Mus musculus, UniProt P38532); assay: decrease of HSF1-responsive luciferase luminescence – cell-based, NIH3T3, dose retest, confirmation (AID 2382); type: functional;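 further: NIH3T3 fibroblasts with HSF1-driven luciferase reporter stressed by proteasome inhibitor MG132; luminescence from HSF1-driven luciferase expression after 8 hours of MG132 stress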
# T2 sequence (P38532 whole entry): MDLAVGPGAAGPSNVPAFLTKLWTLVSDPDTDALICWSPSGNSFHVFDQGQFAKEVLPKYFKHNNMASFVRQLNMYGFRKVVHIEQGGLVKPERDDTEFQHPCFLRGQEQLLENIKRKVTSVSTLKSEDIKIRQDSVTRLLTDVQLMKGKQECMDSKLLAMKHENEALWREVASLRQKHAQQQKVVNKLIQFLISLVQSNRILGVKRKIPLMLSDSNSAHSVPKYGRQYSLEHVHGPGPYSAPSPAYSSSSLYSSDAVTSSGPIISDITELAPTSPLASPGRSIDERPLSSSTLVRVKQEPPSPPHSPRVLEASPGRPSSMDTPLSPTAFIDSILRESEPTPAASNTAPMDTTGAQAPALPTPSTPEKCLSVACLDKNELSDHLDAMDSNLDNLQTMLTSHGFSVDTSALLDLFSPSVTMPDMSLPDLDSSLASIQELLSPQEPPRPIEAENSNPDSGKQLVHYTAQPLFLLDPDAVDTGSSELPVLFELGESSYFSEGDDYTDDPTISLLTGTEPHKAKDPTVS
# Cytochrome P450 1A2 = target: T3, Cytochrome P450 1A2 (Homo sapiens, UniProt P05177);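 further: PubChem cytochrome P450 panel assay, CYP1A2 panel member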
# T3 sequence (P05177 whole entry): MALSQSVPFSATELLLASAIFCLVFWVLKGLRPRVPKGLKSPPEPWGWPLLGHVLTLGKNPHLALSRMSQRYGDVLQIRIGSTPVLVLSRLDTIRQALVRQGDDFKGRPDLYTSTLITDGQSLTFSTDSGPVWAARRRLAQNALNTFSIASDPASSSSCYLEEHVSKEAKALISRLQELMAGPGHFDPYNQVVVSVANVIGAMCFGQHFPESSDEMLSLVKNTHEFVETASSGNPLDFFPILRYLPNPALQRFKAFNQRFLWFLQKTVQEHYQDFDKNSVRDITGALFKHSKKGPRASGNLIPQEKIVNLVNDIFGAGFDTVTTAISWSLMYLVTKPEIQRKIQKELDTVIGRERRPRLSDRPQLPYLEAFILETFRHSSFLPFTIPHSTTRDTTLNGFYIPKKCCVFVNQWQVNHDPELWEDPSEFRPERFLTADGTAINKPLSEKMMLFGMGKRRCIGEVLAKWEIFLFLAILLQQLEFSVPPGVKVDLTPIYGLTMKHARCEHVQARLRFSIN
# Mucolipin-3 = target: T4, Mucolipin-3 (Homo sapiens, UniProt Q8TDD5); assay: Dose response cell-based high-throughput screening assay for agonists of the transient receptor potential channel ML3 (TRPML3). [Related pubchem assays: 1526, 1424, 1448 ]; type: functional
# T4 sequence (Q8TDD5 whole entry): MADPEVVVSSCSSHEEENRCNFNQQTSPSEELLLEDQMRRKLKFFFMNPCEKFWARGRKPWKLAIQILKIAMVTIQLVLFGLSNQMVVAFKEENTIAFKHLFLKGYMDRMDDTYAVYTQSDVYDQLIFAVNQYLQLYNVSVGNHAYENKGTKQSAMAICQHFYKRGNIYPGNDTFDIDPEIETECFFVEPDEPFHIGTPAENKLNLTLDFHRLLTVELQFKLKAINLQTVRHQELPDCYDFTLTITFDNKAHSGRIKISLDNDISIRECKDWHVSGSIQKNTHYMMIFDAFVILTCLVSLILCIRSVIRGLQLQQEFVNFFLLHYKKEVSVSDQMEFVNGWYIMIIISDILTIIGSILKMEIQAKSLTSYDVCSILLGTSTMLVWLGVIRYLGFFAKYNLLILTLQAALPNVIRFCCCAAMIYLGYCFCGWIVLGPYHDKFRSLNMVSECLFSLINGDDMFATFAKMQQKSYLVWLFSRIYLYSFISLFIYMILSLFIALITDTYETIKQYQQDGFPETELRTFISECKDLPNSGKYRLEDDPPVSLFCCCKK
# Ion channel NompC = Ion channel NompC (Danio rerio, UniProt Q7T1G6); assay: Fluorescence counterscreen assay for TRPML3 agonists: dose response cell-based high-throughput screening assay to identify agonists of the transient receptor potential channel N1 (TRPN1). [Related pubchem assays: 1526, 1424, 1448 ]; type: functional
# HEK293 [9] = assay: cells; conditions: Homo sapiens
# HEK293 [10] = assay: cells; conditions: Homo sapiens; remark: listed apart in the source
# [11] = target: T5, RNA-binding protein pos-1 (Caenorhabditis elegans, UniProt G5EF15); assay: disruptors of C. elegans POS-1 RNA interaction – biochemical, fluorescence polarization, dose response (AID 1964);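 further: purified POS-1 fused to maltose binding protein made in E. coli; potency of compounds blocking POS-1 binding to fluorescent RNA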
# T5 sequence (G5EF15 whole entry): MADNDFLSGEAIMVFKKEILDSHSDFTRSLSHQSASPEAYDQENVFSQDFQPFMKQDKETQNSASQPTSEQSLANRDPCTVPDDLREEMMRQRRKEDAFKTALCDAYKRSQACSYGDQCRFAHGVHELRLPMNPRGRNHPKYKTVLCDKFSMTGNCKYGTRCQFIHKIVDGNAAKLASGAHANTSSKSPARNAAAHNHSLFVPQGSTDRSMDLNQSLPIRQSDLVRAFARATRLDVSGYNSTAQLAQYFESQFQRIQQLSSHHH
# [12] = target: T6, Zinc finger protein mex-5 (Caenorhabditis elegans, UniProt Q9XUB2); assay: potency of MEX-5 RNA-binding blockers – biochemical, C. elegans, fluorescence polarization, dose response (AID 1960)
# T6 sequence (Q9XUB2 whole entry): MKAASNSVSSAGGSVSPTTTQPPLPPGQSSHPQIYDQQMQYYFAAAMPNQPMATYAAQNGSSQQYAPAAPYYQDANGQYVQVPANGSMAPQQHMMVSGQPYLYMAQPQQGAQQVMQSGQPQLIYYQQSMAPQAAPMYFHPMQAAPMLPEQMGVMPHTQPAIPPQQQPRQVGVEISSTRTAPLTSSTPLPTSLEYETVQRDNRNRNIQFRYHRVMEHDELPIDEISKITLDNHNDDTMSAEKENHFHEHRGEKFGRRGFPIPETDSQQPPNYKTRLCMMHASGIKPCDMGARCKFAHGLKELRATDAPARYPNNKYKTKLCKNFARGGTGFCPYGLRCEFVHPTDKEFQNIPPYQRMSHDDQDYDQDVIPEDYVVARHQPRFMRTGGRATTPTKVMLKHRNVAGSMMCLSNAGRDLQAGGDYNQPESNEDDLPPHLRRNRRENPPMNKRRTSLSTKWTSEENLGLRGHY
# Keap1/Nrf2 = Keap1/Nrf2 (Homo sapiens, UniProt Q14145); assay: disruptors of Keap1 binding to Nrf2 peptide – biochemical, fluorescence polarization, cherry-picked samples, dose response (AID 588683)
# Genome polyprotein = Genome polyprotein (dengue virus type 2, UniProt P29990); assay: flavivirus cap methylation enzyme inhibition – biochemical, confirmation dose response, primary screen (AID 588689); type: functional
# [13] = target: T7, Ubiquitin-conjugating enzyme E2 N (Homo sapiens, UniProt P61088); type: functional;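 further: Dose-response confirmation in a TR-FRET assay detecting UBC13-driven polyubiquitin chain formation, inhibition measured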
# T7 sequence (P61088 whole entry): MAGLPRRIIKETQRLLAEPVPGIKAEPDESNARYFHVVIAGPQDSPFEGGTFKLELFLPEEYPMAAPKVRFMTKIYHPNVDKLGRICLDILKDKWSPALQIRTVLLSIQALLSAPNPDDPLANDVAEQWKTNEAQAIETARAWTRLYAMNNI
# Vero = assay: cells; type: functional; conditions: Chlorocebus sabaeus
# [14] = target: Dual specificity tyrosine-phosphorylation-regulated kinase 1A (Rattus norvegicus, UniProt Q63470); type: biochemical, Homo sapiens
# Sequence of 5-hydroxytryptamine receptor 5A (P47898 whole entry): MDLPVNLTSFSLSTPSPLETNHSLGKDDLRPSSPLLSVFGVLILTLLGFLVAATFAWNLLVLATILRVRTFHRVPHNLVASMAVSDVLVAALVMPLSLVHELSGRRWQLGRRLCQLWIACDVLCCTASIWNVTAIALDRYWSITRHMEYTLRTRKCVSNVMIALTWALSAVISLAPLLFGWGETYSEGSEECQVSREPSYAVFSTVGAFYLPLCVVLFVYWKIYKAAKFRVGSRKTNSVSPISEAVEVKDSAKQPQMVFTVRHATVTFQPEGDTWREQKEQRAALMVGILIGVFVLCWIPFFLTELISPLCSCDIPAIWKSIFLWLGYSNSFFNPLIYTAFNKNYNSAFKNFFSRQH
# Sequence of Delta-type opioid receptor (P41143 whole entry): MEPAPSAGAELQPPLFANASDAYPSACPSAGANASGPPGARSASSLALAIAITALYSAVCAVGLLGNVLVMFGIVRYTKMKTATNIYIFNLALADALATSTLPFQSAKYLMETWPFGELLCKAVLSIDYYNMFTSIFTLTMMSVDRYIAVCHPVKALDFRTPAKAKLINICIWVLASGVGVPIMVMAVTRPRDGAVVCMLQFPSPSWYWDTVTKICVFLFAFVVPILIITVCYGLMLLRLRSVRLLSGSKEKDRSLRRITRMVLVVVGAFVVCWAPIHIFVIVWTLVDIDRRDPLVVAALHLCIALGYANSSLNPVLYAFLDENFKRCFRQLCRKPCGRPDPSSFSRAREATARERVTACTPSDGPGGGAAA
# Sequence of Mu-type opioid receptor (P35372 whole entry): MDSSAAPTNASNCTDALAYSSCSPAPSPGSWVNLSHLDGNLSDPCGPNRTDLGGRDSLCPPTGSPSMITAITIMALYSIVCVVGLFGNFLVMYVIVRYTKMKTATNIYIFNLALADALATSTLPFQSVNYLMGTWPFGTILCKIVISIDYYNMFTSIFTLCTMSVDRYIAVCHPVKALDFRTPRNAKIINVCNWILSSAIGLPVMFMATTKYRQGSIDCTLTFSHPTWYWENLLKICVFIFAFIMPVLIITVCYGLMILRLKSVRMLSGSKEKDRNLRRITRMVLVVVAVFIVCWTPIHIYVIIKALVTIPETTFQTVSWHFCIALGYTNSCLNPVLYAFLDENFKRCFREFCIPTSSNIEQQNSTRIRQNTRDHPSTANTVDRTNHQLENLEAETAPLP
# Sequence of Keap1/Nrf2 (Q16236 whole entry): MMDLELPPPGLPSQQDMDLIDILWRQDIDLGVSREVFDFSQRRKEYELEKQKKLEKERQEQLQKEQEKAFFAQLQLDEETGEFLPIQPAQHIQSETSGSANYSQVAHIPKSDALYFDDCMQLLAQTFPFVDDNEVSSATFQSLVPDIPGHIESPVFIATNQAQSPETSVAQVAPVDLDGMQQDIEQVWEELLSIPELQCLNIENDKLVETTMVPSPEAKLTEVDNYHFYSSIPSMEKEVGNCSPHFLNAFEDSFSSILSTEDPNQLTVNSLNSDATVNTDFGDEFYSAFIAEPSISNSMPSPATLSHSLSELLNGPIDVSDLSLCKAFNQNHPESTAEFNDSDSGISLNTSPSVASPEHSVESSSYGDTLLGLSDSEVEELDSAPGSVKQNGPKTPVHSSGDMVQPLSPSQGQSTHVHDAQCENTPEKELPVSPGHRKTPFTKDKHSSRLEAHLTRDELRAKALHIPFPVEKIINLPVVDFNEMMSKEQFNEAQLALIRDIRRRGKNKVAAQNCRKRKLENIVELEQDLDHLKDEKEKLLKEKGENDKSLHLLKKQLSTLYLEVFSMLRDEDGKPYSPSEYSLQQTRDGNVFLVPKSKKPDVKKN
# Sequence of Keap1/Nrf2 (Q14145 whole entry): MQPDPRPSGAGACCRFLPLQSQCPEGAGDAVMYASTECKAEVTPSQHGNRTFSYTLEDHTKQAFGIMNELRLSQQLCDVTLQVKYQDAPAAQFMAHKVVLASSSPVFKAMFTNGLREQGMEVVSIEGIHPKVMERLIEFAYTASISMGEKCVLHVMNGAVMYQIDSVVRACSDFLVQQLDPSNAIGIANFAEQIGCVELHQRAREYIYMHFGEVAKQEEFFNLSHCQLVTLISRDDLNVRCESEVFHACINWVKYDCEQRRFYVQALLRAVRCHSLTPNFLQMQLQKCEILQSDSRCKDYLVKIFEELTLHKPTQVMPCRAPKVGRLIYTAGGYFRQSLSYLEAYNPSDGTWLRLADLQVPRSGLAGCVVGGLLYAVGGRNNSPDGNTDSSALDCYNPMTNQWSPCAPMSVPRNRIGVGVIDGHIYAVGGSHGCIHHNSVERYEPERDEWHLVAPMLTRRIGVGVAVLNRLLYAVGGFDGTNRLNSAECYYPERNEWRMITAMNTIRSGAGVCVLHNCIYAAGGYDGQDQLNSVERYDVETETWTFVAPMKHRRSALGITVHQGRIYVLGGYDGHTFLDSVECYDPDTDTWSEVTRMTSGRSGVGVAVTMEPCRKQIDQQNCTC
# Sequence of Genome polyprotein (P29990 2492-3391 limits assumed): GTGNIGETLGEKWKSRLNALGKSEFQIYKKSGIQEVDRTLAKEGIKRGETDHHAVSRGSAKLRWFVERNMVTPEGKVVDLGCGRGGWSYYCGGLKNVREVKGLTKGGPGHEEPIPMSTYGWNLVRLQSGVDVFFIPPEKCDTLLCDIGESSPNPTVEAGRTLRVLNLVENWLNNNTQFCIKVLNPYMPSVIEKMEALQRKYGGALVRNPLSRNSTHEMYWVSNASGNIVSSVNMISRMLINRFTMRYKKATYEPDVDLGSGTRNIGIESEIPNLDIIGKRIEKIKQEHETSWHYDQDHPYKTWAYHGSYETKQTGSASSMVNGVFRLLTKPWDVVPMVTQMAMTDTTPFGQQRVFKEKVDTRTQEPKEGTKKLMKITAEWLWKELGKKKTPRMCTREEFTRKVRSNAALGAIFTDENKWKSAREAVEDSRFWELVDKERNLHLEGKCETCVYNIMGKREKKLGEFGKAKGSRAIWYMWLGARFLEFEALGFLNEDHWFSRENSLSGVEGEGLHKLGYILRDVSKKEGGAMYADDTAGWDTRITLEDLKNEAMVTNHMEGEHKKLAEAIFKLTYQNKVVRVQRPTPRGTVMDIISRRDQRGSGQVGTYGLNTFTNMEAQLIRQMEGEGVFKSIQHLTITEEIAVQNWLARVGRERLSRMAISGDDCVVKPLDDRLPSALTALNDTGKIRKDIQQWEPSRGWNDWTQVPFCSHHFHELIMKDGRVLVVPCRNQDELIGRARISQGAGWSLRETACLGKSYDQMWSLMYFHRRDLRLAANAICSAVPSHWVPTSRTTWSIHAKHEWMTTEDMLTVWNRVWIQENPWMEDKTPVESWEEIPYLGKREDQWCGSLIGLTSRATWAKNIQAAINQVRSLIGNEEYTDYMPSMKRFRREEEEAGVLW
# Sequence of Ion channel NompC (Q7T1G6 whole entry): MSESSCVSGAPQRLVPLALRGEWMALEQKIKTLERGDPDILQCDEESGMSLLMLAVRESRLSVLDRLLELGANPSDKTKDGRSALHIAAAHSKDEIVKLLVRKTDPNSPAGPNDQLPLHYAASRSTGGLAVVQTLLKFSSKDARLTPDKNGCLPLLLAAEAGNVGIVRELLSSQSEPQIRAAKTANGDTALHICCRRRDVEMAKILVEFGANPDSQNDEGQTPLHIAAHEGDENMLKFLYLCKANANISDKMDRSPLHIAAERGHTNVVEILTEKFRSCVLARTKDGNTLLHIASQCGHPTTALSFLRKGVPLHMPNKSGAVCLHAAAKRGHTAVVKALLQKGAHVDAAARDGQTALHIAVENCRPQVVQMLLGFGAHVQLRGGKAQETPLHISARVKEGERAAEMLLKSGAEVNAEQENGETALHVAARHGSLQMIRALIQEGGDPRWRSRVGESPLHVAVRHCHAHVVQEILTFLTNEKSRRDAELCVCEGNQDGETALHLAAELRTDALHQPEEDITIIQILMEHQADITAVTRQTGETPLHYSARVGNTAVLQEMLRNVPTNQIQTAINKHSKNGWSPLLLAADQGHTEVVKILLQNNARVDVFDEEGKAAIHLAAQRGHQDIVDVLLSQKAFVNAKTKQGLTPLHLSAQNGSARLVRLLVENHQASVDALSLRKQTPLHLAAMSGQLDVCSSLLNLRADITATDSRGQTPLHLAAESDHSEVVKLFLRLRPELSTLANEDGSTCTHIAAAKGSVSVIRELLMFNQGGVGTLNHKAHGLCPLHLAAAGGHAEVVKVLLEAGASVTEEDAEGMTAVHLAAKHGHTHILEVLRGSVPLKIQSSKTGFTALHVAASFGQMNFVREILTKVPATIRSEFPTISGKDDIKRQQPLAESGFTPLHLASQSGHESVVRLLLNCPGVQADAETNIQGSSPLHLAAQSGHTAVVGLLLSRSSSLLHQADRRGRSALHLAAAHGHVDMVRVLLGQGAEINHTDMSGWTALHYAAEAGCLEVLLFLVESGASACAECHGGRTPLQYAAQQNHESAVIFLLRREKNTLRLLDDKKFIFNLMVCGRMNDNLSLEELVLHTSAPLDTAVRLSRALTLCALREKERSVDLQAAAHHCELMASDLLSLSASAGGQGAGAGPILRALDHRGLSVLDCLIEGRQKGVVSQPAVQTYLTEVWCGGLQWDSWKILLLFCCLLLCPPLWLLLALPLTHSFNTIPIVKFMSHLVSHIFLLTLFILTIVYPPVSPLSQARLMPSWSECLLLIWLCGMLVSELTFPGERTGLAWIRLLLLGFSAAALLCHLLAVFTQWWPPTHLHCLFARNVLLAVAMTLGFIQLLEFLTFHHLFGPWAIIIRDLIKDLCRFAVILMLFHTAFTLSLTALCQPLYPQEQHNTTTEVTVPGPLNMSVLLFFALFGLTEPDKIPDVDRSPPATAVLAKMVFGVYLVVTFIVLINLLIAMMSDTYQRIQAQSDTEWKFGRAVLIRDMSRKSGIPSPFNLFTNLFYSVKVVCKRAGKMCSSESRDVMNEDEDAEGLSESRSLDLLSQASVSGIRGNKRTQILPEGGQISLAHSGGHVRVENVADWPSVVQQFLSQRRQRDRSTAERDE
compound,measurement,setting,value
COc1cc(NC(=O)C2CC(=O)NC3=C2C(=O)CC(C)(C)C3)c(OC)cc1Cl (configuration not stated),AC50,Escherichia coli,24.1 µM (active)
CN(C)C(CNC(=O)Cc1ccc(Br)cc1)c1ccccc1 (configuration not stated),EC50,[1],0.105 µM (active)
same,EC50,[2],36.1 µM (inactive)
same,EC50,Mu-type opioid receptor,> 92.5 µM (inactive)
same,EC50,[3],> 92.5 µM (inactive)
Cn1c(-c2c(N)n(CCc3ccccc3)c3nc4ccccc4nc23)nc2ccccc21,EC50,[4],> 160 µM (inactive)
same,EC50,[5],> 38 µM (not active)
same,CC50,[6],> 40 µM (active)
same,EC50,[2],> 92.5 µM (inactive)
same,EC50,Mu-type opioid receptor,24.8 µM (inactive)
same,EC50,[3],> 92.5 µM (inactive)
CC(C)c1ccc(NC(=O)N(CCc2nc3ccccc3[nH]2)C2CCCC2)cc1,CC50,[7],35.4 µM (active)
same,EC50,[8],> 195 µM (not active)
same,EC50,[2],> 92.4 µM (inactive)
same,EC50,Mu-type opioid receptor,> 92.4 µM (inactive)
same,EC50,[3],> 92.4 µM (inactive)
same,AC50,Cytochrome P450 1A2,11.2 µM (inconclusive)
COc1ccc(C(C)(C)C)cc1NC(=O)c1cc(S(=O)(=O)N(C)C)ccc1N1CCCC1,EC50,Mucolipin-3,> 29.9 µM (not active)
same,EC50,Ion channel NompC,> 29.9 µM (not active)
same,EC50,HEK293 [9],> 59.6 µM (inactive)
same,EC50,HEK293 [10],> 59.6 µM (inactive)
O=C(Cn1ccc(C(F)(F)F)n1)Nc1ccc(S(=O)(=O)NCc2ccco2)cc1,AC50,Escherichia coli,38.6 µM (active)
Cc1cccc(C2CC(c3ccccc3)Nc3ncnn32)c1 (configuration not stated),EC50,HEK293 [9],> 59.6 µM (inactive)
same,EC50,HEK293 [10],> 59.6 µM (inactive)
COc1ccc(S(=O)(=O)N2CCC(C(N)=O)CC2)cc1,AC50,Escherichia coli,38.3 µM (active)
Cc1c(N)cc(N)cc1C(=O)O,EC50,[11],> 300 µM (not active)
same,EC50,[12],27.7 µM (active)
same,AC50,Keap1/Nrf2,> 52 µM (inactive)
same,IC50,Genome polyprotein,> 100 µM (active)
Cc1cccc(Nc2cc(C)c3c(O)cccc3n2)c1C,IC50,[13],> 20 µM (inactive)
same,CC50,Vero,> 25 µM (active)
same,AC50,[14],1.13 µM (active)
